Entries after “also recorded” stand apart in the source; their conditions may differ.
How the values were obtained:
Type in all cases: cell-based
[1] = system: RAW 264.7 macrophages; experiment: NO release induced by LPS and γ-IFN in macrophagic cells (nitrite, Greiss reagent); conditions: induction with γ-IFN and LPS, FIG. 1, FIG. 4
Method: RAW 264.5 macrophages are selected for measuring the effect of α1-antitrypsin on NO release. RAW 264.7 cell monolayers are pretreated for 1 hour with α1-antitrypsin (0.1-3 mg/ml), followed by costimulation by interferon-γ(10 U/ml), and LPS (1 ng/ml) for 18 hours. Aliquots (100 μl) of supernatant are combined with equal volumes of Greiss reagent and incubated at room temperature for 10 minutes. The colorimetric determination of nitrite concentration is measured by absorbance at 550 nm and quantified with a standard curve. The combination of LPS and interferon-γ is a potent stimulus for NO release in […] macrophages. The effect of α1-antitrypsin at 3 mg/ml on NO expression is measured.

[2] = system: NF-κB; experiment: Electrophoretic mobility shift assay of NF-κB induced by interleukin-18; conditions: induced by incubation with IL-18, EMSA; FIG. 3
[3] = system: iNOS protein; experiment: Induction of iNOS protein by LPS and γ-interferon, Western blot; conditions: macrophagic cells, γ-IFN and LPS, FIG. 2
Method: RAW 264.7 macrophage monolayers are treated for 1 hour with α1-antitrypsin (3 mg/ml), followed by costimulation by interferon-γ (10 U/ml), and LPS (1 ng/ml) for 18 hours. The cells are lysed by exposure to lysis solution (50 mm Tris-HCl, pH 8.0, 137 mm NaCl, 10% (v/v) glycerol, 1% (v/v), Nonidet P-40, 1 mM NaF, 10 μg/ml leupeptin, […] aprotinin, 2 mM sodium vanadate, and 1 mM phenylmethylsulfonyl fluoride). Samples containing equivalent amounts of total protein are subjected to SDS-polyacrylamide gel electrophoresis. Western blots of the gels are prepared, non-specific sites blocked by incubation overnight with 5% non-fat dry milk, and iNOS detected by incubation with iNOS anti-serum (Alexis Corporation, 1:1000 in 5% (w/v) bovine serum albumin in a solution of 20 mm Tris-HCl, pH 7.6, 137 mM […], and 0.005% (v/v) Tween 20). Using horseradish peroxidase-conjugated second antibody, the antibody bound to iNOS is detected by enhanced chemiluminescence. The effect of the combination of interferon-γ, and LPS on induction of iNOS in the cell extract and the effect of pretreatment with α1-antitrypsin are measured.

[4] = system: cytomegalovirus (CMV); experiment: Cytomegalovirus replication in infected RAW 264.5 macrophages; conditions: RAW 264.5 macrophages infected with CMV; FIG. 6
[5] = system: herpes simplex virus (HSV); experiment: Herpes simplex virus replication; conditions: FIG. 7
[6] = system: p-ERK (p42/p44 MAP kinase); experiment: Western blot of p-ERK expression; conditions: FIG. 5

Compound | effect on NO levels (measured as NO2-) induced by γ-IFN and LPS [1] | effect on induction of active NF-κB [2] | effect on induction of iNOS protein [3] | effect on CMV replication [4] | effect on replication of HSV [5] | effect on level and/or phosphorylation of p-ERK [6]
Cc1cccc(Cc2nnc(C(=O)C(NC(=O)[C@@H]3CCCN3C(=O)[C@@H](NC(=O)OCc3ccccc3)C(C)C)C(C)C)o2)c1 (stereo partly drawn) [CE-2072, benzyloxycarbonyl-L-valyl-N-[1-(2-[5-(3-methylbenzyl)-1,3,4-oxadiazolyl]carbonyl)-2-(S)-methylpropyl]-L-prolinamide, reference compound] | inhibits NO levels | inhibit the induction of active NF-κB |  |  |  | 
α1-antitrypsin | efficiently block γ-IFN- and LPS-induced NO synthesis; also recorded: inhibits NO levels | inhibit the induction of active NF-κB | inhibits induction of iNOS protein | blocks CMV replication | inhibits replication of HSV | inhibits the level and/or phosphorylation of p-ERK

— US20040220239A1, “Inhibitors of serine protease activity methods and compositions for treatment of nitric oxide-induced clinical conditions” (priority 2003, published 2004)
